Columns and labels:
[1] = test system: pediatric patients diagnosed with ADHD combined type; test: Open-label study of memantine in pediatric ADHD combined type: ADHD-IV-RS; type: in vivo, human; conditions: for ADHD-IV-RS change from baseline, Week 4 (mean) / ADHD-IV-RS change from baseline, Week 8 (mean ± SD) / ADHD-IV-RS score, Week 4 (mean ± SD) / ADHD-IV-RS score, Week 8 (mean ± SD) / ADHD-IV-RS change from baseline, Week 4 (mean ± SD): ITT population
Source text: The Attention Deficit/Hyperactivity Disorder Rating Scale, Fourth Edition-Parent Version (ADHD-IV-RS) assesses each of the 18 individual criteria symptoms of ADHD in DSM-IV-TR™ on a severity grid (0=not present, 3=severe; overall minimum score=0, maximum score=54) (DuPaul et al., ADHD Rating Scale-IV: Checklists, Norms, and Clinical Interpretations 1998. New York: The Guilford Press). Inattention symptoms comprise the odd-numbered items, and hyperactive-impulsive symptoms are represented by the even-numbered items. The scale takes approximately 10 to 15 minutes to complete. […] It is to be completed by the patient's parent or legal guardian at Screening (part 1.1), Baseline, and from two to eight times during Visits 3 to 10, or upon study discontinuation.
(§1) The primary objective of this study was to provide preliminary safety and tolerability evaluations of memantine in pediatric patients with ADHD combined type. The secondary objectives of the study were to evaluate the pharmacokinetics of memantine in this patient population, and to provide preliminary evaluations of efficacy on effect based on a 8-week administration of memantine.
(§2) Design. This clinical trial was conducted as an open-label, single center, dose-finding outpatient study assessing memantine in pediatric patients diagnosed with ADHD combined type (DSM-IV-TR™ criteria). ADHD combined type is characterized by the presence of significant inattentive and hyperactive/impulsive symptomotology.
(§3) Patient Population. The study enrolled sixteen (16) male or female outpatients between the ages of 6 and 12 years, mean age of 8 years, diagnosed with ADHD combined type by DSM-IV-TR™ criteria based on clinical evaluation and a semi-structured interview, the Schedule for Affective Disorders and Schizophrenia for School-Age Pediatric patients-Present and Lifetime (K-SADS-PL).
(§4) Dosages. Sixteen (16) outpatients with a diagnosis of ADHD combined type received treatment with memantine for a total of 8 weeks. Patients were enrolled in to two groups of 8 patients each, Cohort 1 and Cohort 2. Dose adjustments were permitted for patients experiencing dose-limiting adverse events. For Cohort 1 patients, treatment consisted of a 4 week titration period from a starting dose of 2.4 mg/day at the start of week 0, to 4.8 mg/day at the start of week 1, to 7.2 mg/day at the start of Week 2 to a maximum dose of 10 mg/day at the start of week 3, with a maintenance dose of 10 mg/day continuing to the end of Week 8. For Cohort 2 patients, treatment consisted of a 4-week titration period from a starting dose of 4.8 mg/day at the start of Week 0, to 10 mg/day at the start of Week 1, to 14.8 mg/day at the start of Week 2, to a maximum dose of 20 mg/day at the start of Week 3, with a maintenance dose of 20 mg/day continuing to the end of Week 8.
(§5) Patients who missed 2 consecutive visits were discontinued from the study. […] The “Safety Population” consisted of all patients who took at least one dose of study medication. The “Intent-to-Treat (ITT) Population” consisted of all patients in the safety population with at least one post baseline efficacy assessment of ADHD-IV-RS or CGI-ADHD-S. ADHD-IV-RS or CGI-ADHD-S were administered 4 times per patient, once at Screening, once at baseline, once at the end of Week 4 and once at the end of Week 8. […] Those patients unable to tolerate the minimum daily dose after the Week 1 of dosing were discontinued from the study without replacement.
Efficacy parameters used for evaluation were the ADHD-IV-RS, CGI-ADHD-S, CCPT-II, Woodcock Johnson III reading and math fluency tests, and the Stroop test, described above.
The primary analysis for each efficacy parameter was based on observed cases. Only patients completing the evaluation were included in the OC analysis, missing data were not imputed. A last observation carried forward (LOCF) analysis was also performed for each efficacy assessment. […]

[2] = test system: pediatric patients diagnosed with ADHD combined type; test: Open-label study of memantine in pediatric ADHD combined type: CGI-ADHD-S; type: in vivo, human; conditions: Cohort 2, OC analysis, patients who completed the evaluation, end of 8 weeks; 100% moderately or markedly ill at baseline
Method: The Clinical Global Impression-ADHD-Severity (CGI-S) is a 7-point scale (1 [not ill] to 7 [extremely ill]) to be assessed by the Investigator at Screening (part 1.1), Baseline, and from two to eight times during Visits 3 to 10, or upon study discontinuation.
as §2, §3
Dosages. Sixteen (16) outpatients with a diagnosis of ADHD combined type received treatment with memantine for a total of 8 weeks. Patients were enrolled in to two groups of 8 patients each, Cohort 1 and Cohort 2. Dose adjustments were permitted for patients experiencing dose-limiting adverse events. […]

[3] = test system: pediatric patients diagnosed with ADHD combined type; test: Open-label ADHD study: overall efficacy, tolerability and patient disposition; type: in vivo, human
Method: as §1, §2, §4, §5
Adverse events. Adverse event (AE) monitoring was performed at all study visits except Screening, including early termination. An AE is any untoward medical occurrence in a patient or clinical investigation subject administered a pharmaceutical product. It is not necessary that the AE have a causal relationship to treatment with the product.
An AE therefore is any unfavorable and unintended sign (for example, a clinically significant abnormal laboratory finding) symptom, or disease temporally associated with the use of study medication, whether or not considered related to study medication. […] An AE occurring during the open-label treatment period is counted as a treatment-emergent AE (TEAE) if it is not present prior to the first dose of study medication or if it is present prior to the first dose of study medication but increases in severity following the first dose of study medication.
The number (percentage) of patients with TEAEs were tabulated by body system and preferred term. Within a specific category (i.e., a specific body system or preferred term), the patient was counted only once if the patient had more than one event reported. […]

[4] = cited from earlier work
[5] = test system: cytochrome P-450 (CYP 450) isoenzymes; conditions: in vitro; cited from earlier work
NMDA receptor = conditions: uncompetitive antagonist; cited from earlier work
[6] = test system: patients with moderate to severe dementia of the Alzheimer's type; conditions: cited from earlier work
[7] = test system: patients with neurodegenerative disorders; conditions: cited from earlier work
[8] = aqueous media; cited from earlier work
autism = conditions: in vivo; cited from earlier work
autistic children = conditions: small double-blind, placebo-controlled study; cited from earlier work
[9] = test system: hyperkinetic children, children with attention deficit disorder (ADD); conditions: in vivo; cited from earlier work
[10] = test system: autistic spectrum disorders; conditions: in vivo; cited from earlier work
[11] = Cohort 1 (up to 10 mg/day), LOCF
[12] = Cohort 2 (up to 20 mg/day), LOCF

## CC12CC3CC(C)(C1)CC(N)(C3)C2.Cl [memantine, 1-amino-3,5-dimethyladamantane hydrochloride]
[1]; [11]
  ADHD-IV-RS change from baseline, Week 4 (mean): −3.3
  ADHD-IV-RS change from baseline, Week 8 (mean ± SD): −3.8 ± 2.31
  ADHD-IV-RS score, Week 4 (mean ± SD): 42.8 ± 8.33
  ADHD-IV-RS score, Week 8 (mean ± SD): 40.9 ± 8.53
[1]; Cohort 1 (up to 10 mg/day), OC
  ADHD-IV-RS change from baseline, Week 4 (mean ± SD): −3.5 ± 2.38
  ADHD-IV-RS score, Week 4 (mean ± SD): 42.8 ± 8.33
[1]; [12]
  ADHD-IV-RS change from baseline, Week 4 (mean): −10.9
  ADHD-IV-RS change from baseline, Week 8 (mean ± SD): −9 ± 10.00
  ADHD-IV-RS score, Week 4 (mean ± SD): 31.3 ± 13.05
  ADHD-IV-RS score, Week 8 (mean ± SD): 32.9 ± 12.76
[1]; Cohort 2 (up to 20 mg/day), OC
  ADHD-IV-RS change from baseline, Week 4 (mean ± SD): −11. ± 59.65
  ADHD-IV-RS change from baseline, Week 8 (mean ± SD): −16.5 ± 8.19
  ADHD-IV-RS score, Week 4 (mean ± SD): 29.5 ± 13.32
  ADHD-IV-RS score, Week 8 (mean ± SD): 22.3 ± 8.66
[1]; Cohort 2, end of 8 weeks, OC analysis
  Effect on ADHD-IV-RS (in words): showed improvement
[2]
  CGI-ADHD-S: patients considered borderline or markedly ill: 75%
[3]; 8-week open-label treatment, up to 10 or 20 mg/day
  Tolerability in patients with ADHD: well tolerated
[3]; Cohort 1, 8 patients, all discontinued prior to week 8
  Patients discontinued for insufficient therapeutic efficacy: 7
[3]; Cohort 2 (up to 20 mg/day)
  Behavior and symptomology of combined type ADHD (in words): demonstrated improvements
[3]; Cohort 2, 8 patients, 4 completed the study
  Patients discontinued for insufficient therapeutic efficacy: 3
[3]; the 25% of patients completing the study
  Efficacy after 8 weeks of treatment (in words): improvement in two efficacy parameters was observed
[4]; adult humans, oral
  Bioavailability after an oral dose: 100%
[4]; adult humans
  CSF/serum ratio: 0.52
  Metabolism: minimal
[4]; in vivo
  Effect of food, sex or age on pharmacokinetic profile: not affected
[5]
  Inhibition of CYP 450 isoenzymes: does not inhibit
NMDA receptor
  Affinity for the NMDA receptor: low to moderate
[6]; 2 US studies, outpatients ages 50-93, moderate to severe Alzheimer's dementia
  Cognitive, functional and global assessments: significant improvement
[6]; study 9403, Latvian nursing home patients, Alzheimer's disease or vascular dementia (MMSE<10)
  Care dependency and global change relative to placebo: significant improvement
[7]; 2297 patients in 27 clinical trials
  Safety and tolerability profile: acceptable
[7]; clinical trials, relatively rare
  Most common adverse events: dizziness, headache, constipation, and confusion
[8]
  Solubility: highly soluble

## secretin: a synthetic form of the natural human hormone secretin developed by RepliGen for the potential treatment of autism
autism
  Autistic behavior compared to placebo: did not demonstrate significant improvement

## NC12CC3CC(CC(C3)C1)C2 [amantadine, 1-aminoadamantane]
Autistic children
  Measures of hyperactivity and irritability: statistically significant improvement
[9]
  Effects in hyperkinetic children and children with ADD: favorable effects

## Cc1nc2n(c(=O)c1CCN1CCC(c3noc4cc(F)ccc34)CC1)CCCC2 [risperidone]
[10]
  Adverse effects associated with treatment: weight gain, increased appetite, fatigue, drowsiness, tremor and drooling
